Experiment: Toxicity in spruce budworm larvae assessed as mortality at 0.8 umol
Format: organism-based
Conditions: choristoneura fumiferana, in vivo, read-out: Activity

Q: For `CC(C)=CCCC(=O)c1cc2cc(O)ccc2o1`, which mortality is on record?
A: 36%

Reference: ChEMBL document CHEMBL1158862, “Insect Toxins from an Endophytic Fungus from Wintergreen” (J Nat Prod, 1997)
